Data from publication PMC11076738, “A rapid and simple non-radioactive assay for measuring uptake by solute carrier transporters” (Frontiers in Pharmacology, 2024).

What was measured:
Type in all cases: cell-based
NTCP = target: T1, NTCP (Homo sapiens, UniProt Q14973); assay: TCA-d4 uptake assay (LC-MS/MS) in HepG2 NTCP cells
T1 construct: His-tag; expressed in transfected cells
T1 sequence (Q14973 1-349): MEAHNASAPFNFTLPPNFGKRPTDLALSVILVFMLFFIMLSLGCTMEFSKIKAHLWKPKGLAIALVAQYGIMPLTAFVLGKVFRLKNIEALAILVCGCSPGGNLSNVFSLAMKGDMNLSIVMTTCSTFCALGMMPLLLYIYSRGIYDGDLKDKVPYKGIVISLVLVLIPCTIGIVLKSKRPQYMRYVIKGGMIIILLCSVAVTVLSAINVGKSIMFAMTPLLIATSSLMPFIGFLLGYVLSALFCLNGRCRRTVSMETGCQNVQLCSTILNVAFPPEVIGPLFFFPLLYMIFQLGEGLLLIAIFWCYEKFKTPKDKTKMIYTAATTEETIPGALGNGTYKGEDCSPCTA
Procedure: HepG2 NTCP cells were seeded into 12-well plates at a density of 2×10^5/well. After a 48 h incubation, cells were carefully washed with uptake buffer (10 mM HEPES, 100 mM NaCl, 2 mM KCl, 1 mM MgCl2, 1 mM CaCl2, pH 7.4) twice and incubated in 0.5 mL of uptake buffer for 15 min at 37 °C. […] Cells were then allowed to take up 5 μM of TCA-d4 at 37 °C for another 15 min. After incubation, cells were washed with uptake buffer three times and lysed with 200 μL of ethanol. The cell lysate was transferred to a new tube and the supernatant was collected by centrifugation at 12,000 rpm for 10 min at 4°C. TCA-d4 uptake was quantified with LC-MS/MS.
Prepared samples were separated on an Agilent 1290 II system (CA, United States) equipped with an XSelect HSS T3 C18 reverse phase column (2.1 × 150 mm, 3.5 μm). […] To separate TCA-d4, the mobile phase consisted of solution A (5 mM ammonium formate) and solution B (methanol). […]
Targeted analytes were monitored in a negative multiple-reaction monitoring (MRM) mode on an Agilent 6495C triple quadrupole LS/MS system (CA, United States). […] Leucine-d3 and TCA-d4 were monitored in negative ion mode with MRM ion pairs at 135.1 > 89.2 (collision energy: 14 eV) and 518.0 > 124.0 (collision energy: 65 eV), respectively. […]

BMP reporter gene = BMP reporter gene assay (Id1-Luc) in HEK293T cells; conditions: HEK293T cells with Id1-Luc reporter; 3 μM, 12 h
Procedure: HEK293T cells transfected with Id1-Luc reporter construct were seeded into a 96-well plate (190 μL/well of 3,000 cells/mL)) and then treated with 3 μM JH7 for 12 h. FK506 and DMSO were used as positive and negative controls, respectively. Cells were removed 100 μL DMEM and added in 40 μL Bright-Glo™ Luciferase reagent (per well) and placed on a plate-shaker for 10 min. Bright-Glo™ Luciferase Assay was performed with Ensight plate reader.

LAT1 [1] = target: T2, LAT1 (Homo sapiens, UniProt Q01650); assay: leucine-d3 uptake assay (LC-MS/MS) in LS174T cells; conditions: 5 μM leucine-d3, 15 min uptake, mean ± s.d., n = 3, read-out: IC50, inhibition of leucine-d3 uptake
T2 construct: endogenous in cells; host or cells: LS174T (wild type)
Procedure: LS174T cells were seeded into 12-well plates at a density of 1×10^6/well. After a 48 h incubation, cells were carefully washed with prewarmed Na^+-free uptake buffer (10 mM Tris-HCl, 150 mM KCl, 5 mM MgCl2, 1 mM EGTA, pH 7.4) twice and incubated in 0.5 mL of Na^+-free uptake buffer at 37 °C for 15 min. Cells were washed with Na^+-free uptake buffer once again and incubated with different concentrations of JPH203 or DMSO at 37 °C for 15 min. Cells were then allowed to take up 5 μM of leucine-d3 at 37 °C for another 15 min. After incubation, cells were washed with Na^+-free uptake buffer three times and lysed with 200 μL of acetonitrile. The cell lysate was transferred to a new tube and the supernatant was collected by centrifugation at 12,000 rpm for 10 min at 4°C. Leucine-d3 uptake was quantified with LC-MS/MS.
Prepared samples were separated on an Agilent 1290 II system (CA, United States) equipped with an XSelect HSS T3 C18 reverse phase column (2.1 × 150 mm, 3.5 μm). […]
Targeted analytes were monitored in a negative multiple-reaction monitoring (MRM) mode on an Agilent 6495C triple quadrupole […] system (CA, United States). […] Leucine-d3 and TCA-d4 were monitored in negative ion mode with MRM ion pairs at 135.1 > 89.2 (collision energy: 14 eV) and 518.0 > 124.0 (collision energy: 65 eV), respectively. […]

LAT1 [2] = target: T2, LAT1; assay: 3H-leucine uptake assay in LS174T cells; conditions: read-out: IC50, inhibition of 3H-leucine uptake, radioactive method, mean ± s.d., n = 3
Procedure: The inhibitory activity of JPH203 on LAT1 was analyzed by measuring the cell uptake of ^3H-leucine as previously described with minor modifications ([Oda et al., 2010]). Similar to leucine-d3 uptake assay, LS174T cells were washed twice and incubated in Na^+-free uptake medium (10 mM Tris-HCl, 150 mM KCl, 5 mM MgCl2, 1 mM EGTA, pH 7.4) for 15 min. Cells were added with JPH203 or DMSO and incubated for another 15 min before adding ^3H-leucine. After 15 min incubation, cells were washed three times and lysed with 0.2 N NaOH plus 0.2% SDS. The cell lysate was transferred to a new tube containing 1 mL of optiphase supermix. ^3H-leucine uptake was quantified with a scintillation counter.

T2 sequence (Q01650 whole entry): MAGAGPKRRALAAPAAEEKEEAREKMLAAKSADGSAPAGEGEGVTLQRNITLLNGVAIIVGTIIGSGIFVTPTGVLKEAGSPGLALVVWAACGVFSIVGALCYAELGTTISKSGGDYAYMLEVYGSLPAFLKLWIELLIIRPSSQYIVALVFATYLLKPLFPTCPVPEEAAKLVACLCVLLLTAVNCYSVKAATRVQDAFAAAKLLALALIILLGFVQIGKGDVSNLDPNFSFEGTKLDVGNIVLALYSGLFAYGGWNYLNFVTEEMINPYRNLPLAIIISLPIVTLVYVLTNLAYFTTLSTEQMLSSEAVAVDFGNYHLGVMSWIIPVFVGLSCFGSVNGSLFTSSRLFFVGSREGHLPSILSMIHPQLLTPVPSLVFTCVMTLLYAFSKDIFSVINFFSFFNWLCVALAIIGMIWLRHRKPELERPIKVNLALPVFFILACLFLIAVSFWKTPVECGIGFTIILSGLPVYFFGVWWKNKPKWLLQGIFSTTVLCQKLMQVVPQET
T2 sequence (P08195 102-630 partner): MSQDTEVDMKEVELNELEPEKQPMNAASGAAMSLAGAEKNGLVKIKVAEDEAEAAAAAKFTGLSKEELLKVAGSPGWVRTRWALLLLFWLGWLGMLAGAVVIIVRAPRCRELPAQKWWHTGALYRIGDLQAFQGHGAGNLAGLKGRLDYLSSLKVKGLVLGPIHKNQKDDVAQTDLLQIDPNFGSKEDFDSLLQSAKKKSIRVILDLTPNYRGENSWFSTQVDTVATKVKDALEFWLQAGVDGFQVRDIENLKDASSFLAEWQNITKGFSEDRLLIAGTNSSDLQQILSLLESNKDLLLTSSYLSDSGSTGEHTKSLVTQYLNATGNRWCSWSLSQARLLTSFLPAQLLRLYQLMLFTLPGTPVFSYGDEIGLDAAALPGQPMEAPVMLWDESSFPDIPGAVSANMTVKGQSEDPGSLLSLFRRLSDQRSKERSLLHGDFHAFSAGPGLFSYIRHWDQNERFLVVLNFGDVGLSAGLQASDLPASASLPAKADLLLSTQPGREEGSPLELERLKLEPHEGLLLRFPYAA

| SMILES | IC50 (NTCP; 5 μM TCA-d4, 15 min uptake, mean ± s.d., n = 3, read-out: IC50, inhibition of TCA-d4 uptake) [nM] | TCA-d4 uptake (% of control) (NTCP; rapafucins at a final concentration of 2 μM) | activation of BMP reporter gene (BMP reporter gene) | IC50 (LAT1 [1]) [nM] | IC50 (LAT1 [2]) [nM] |
| --- | --- | --- | --- | --- | --- |
| CCCC[C@H]1C(=O)N[C@@H](Cc2ccc(F)cc2)C(=O)N(C)CC/C=C/C(=O)OCC(C)(C)C(=O)C(=O)N2CCCC[C@H]2C(=O)O[C@H](CCc2ccc(OC)c(OC)c2)c2cccc(c2)OCC(=O)N(C)CC(=O)N[C@@H](Cc2cccs2)C(=O)N1C [JH7] | 49.3 ± 0.8 | 19.35 % of control | did not activate |  |  |
| Nc1cc(COc2c(Cl)cc(C[C@H](N)C(=O)O)cc2Cl)c2oc(-c3ccccc3)nc2c1 [JPH203] |  |  |  | 1110 ± 210 | 960 ± 90 |
